This is an account of results in patent US6624144B1, “Matrix metalloproteinase inhibitors and down-regulators” (CTT Cancer Targeting Technologies Oy, priority 1998, dated 2003).

Bridge positions count the residues as written; N and C are the ends. Ends that are not written are not given here. Peptide text beside a SMILES is read from it.

Data set [1] can be described thus: Solubility in aqueous buffers.
In data set [2] the test system is HT1080 fibrosarcoma cells. Nature of the data set: Transwell random migration of HT1080 cells. It is filed as cell-based. The following applies: 500 μg/ml, control peptides. On the procedure:
The endothelial cell line HUVEC (human umbilical vein endothelial cells, obtained from the ATCC, Rockville, Md.) was grown in RPMI 1640 medium containing penicillin (100 units/ml), streptomycin (100 μg/ml), 10 mM HEPES, 30 μg/ml endothelial cell growth supplement (Biomedical Technologies, Stoughton, Mass.), and 20% fetal calf serum. The HT1080 fibrosarcoma cells (ATCC, Rockville, Md.), C8161 melanoma cells and Eahy926 cells (derivative of HUVEC) were cultured in Dulbecco's modified Eagle's medium containing the antibiotics, 10% fetal calf serum, and hypoxanthine/aminopterin/thymidine additive with the Eahy926 cells. Cultures of cells were harvested with trypsin-EDTA (endothelial cells) or EDTA alone (other cells), washed, and resuspended in the full serum-containing media as indicated above.
Random cell migration was studied using […] pore size and 6.5 mm diameter Transwell inserts (Costar, Cambridge, Mass.) that were equilibrated in the serum-containing medium for 2 h before use. Tumor cell invasion was studied using 6.4 mm diameter Boyden chambers precoated with Matrigel (Becton Dickinson, Bedford, MA) and equilibrated in the serum-containing medium. […] Cells were removed from the upper surface of the membrane with a cotton swab, and the cells migrated on the undersite of the membrane were counted microscopically, or alternatively quantitated by scanning.

The next data set addresses T1, proMMP-9 (Homo sapiens, UniProt P14780).
T1 construct: from tissue; host or cells: human neutrophils
Nature of the data set: [125I]-gelatin degradation by proMMP-9 (autoactivating). It is filed as biochemical. On the procedure:
(§1) ProMMP-9 was purified from human neutrophils and activated with aminophenyl mercuric acetate (APMA) essentially as described by Hibbs et al. (1985). For the selection of MMP-9 binding phage, APMA-activated MMP-9 was coated on microtiter wells overnight at 4° C. using a concentration of 1 μg/ml, after which the […] were saturated with 5 % bovine serum albumin. In the first panning, the library was incubated overnight at 4° C. in 50 mM Tris-HCl/0.1 M NaCl buffer (pH 7.5) (TBS) containing 1% bovine serum albumin, and after extensive washing the bound phage were eluted with low pH buffer. In the subsequent pannings, the amplified phage were allowed to bind for 1 h at 22° C. […] The bound phage were quantitated by adding 50 ng per well of anti-M13 antibody (Pharmacia, Uppsala, Sweden) labeled with an Europium-chelate (Wallac Ltd., Turku, Finland). After incubation for 45 min followed by washing, the fluorescence was measured with 1230 Arcus fluorometer (Wallac Ltd., Turku, Finland).
(§2) For the gelatin and casein degradation assays, purified MMP-2 and MMP-9 (50-100 ng) were first incubated for 60 min with various concentrations of the peptide inhibitors, after which a 21 kDa β-casein (52 μM) or [^125I]-gelatin substrate was added. After incubation for 2 h at 22 ° C., degradation of the casein was analyzed by SDS gel electrophoresis. […]

In data set [3] the target is T2, proMMP-2 (Homo sapiens, UniProt P08253).
T2 construct: endogenous in cells; host or cells: human gingival fibroblasts (serum-free culture medium)
T2 sequence (P08253 30-660 limits assumed): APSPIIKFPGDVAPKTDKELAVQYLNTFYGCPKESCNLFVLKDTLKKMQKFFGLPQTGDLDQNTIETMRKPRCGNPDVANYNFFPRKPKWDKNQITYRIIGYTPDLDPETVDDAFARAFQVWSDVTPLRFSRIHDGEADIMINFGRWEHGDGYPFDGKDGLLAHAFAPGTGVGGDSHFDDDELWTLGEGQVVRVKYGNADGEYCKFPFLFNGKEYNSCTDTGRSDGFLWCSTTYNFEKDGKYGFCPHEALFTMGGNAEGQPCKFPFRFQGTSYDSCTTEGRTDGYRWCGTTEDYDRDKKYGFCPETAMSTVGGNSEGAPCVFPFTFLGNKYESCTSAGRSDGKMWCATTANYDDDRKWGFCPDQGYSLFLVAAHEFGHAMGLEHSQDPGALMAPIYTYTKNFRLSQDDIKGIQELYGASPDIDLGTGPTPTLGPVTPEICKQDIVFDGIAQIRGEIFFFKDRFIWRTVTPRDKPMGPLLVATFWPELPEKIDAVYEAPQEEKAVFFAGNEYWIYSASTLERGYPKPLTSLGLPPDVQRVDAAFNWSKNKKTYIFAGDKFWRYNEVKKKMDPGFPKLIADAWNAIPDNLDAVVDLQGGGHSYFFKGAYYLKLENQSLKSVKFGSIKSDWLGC
Kind of data set: β-casein degradation by proMMP-2 not preactivated with APMA. Format: biochemical. On the procedure:
(§3) After 1 h pretreatment with the peptides, APMA-activated MMP-2 (A, C) or proMMP-2 (B, D) was incubated with the casein for 2 h. 52 μM β-casein was used as substrate for MMPs. Shown is Coomassie Blue-staining of the 21 kD β-casein (lane 1) and its fragments (lanes 2-9) resolved by SDS-PAGE (A, B); CTTHWGFTLC(SEQ ID NO:3) was used at the concentrations of (2) 0 μg/ml, (3) 75, (4) 50, (5) 25, (6) 10, (7) 5, (8) 1, and (9) 0.5 μg/ml in the lanes 2-9, respectively. (C, D); the concentrations of CRRHWGFEFC(SEQ ID. NO:2) were 0, 250, 100, 50, 25, 10, 1, and 0.5 μg/ml, respectively.
(§4) For the gelatin and casein degradation assays, purified MMP-2 and MMP-9 (50-100 ng) were first incubated for 60 min with various concentrations of the peptide inhibitors, after which a 21 kDa β-casein (52 μM) or [^125I]-gelatin substrate was added. After incubation for 2 h at 22 ° C., degradation of the casein was analyzed by SDS gel electrophoresis. The degradation of [^125I]-gelatin was determined by counting radioactivity in the supernatant after precipitation of undegraded gelatin with 20% trichloroacetic acid.
(§5) We also used β-casein as a substrate for the gelatinases and analyzed the degradation products by SDS gel electrophoresis.

A further data set addresses T3, APMA-activated MMP-9 (Homo sapiens, UniProt P14780).
T3 construct: from tissue; host or cells: human neutrophils
Nature of the data set: [125I]-gelatin degradation by APMA-activated MMP-9. It is filed as biochemical. As for the experimental part:
as §1, §2

In another data set the target is T4, MMP-2 (Homo sapiens, UniProt P08253).
T4 construct: endogenous in cells; host or cells: human gingival fibroblasts (serum-free culture medium)
T4 sequence (P08253 110-660): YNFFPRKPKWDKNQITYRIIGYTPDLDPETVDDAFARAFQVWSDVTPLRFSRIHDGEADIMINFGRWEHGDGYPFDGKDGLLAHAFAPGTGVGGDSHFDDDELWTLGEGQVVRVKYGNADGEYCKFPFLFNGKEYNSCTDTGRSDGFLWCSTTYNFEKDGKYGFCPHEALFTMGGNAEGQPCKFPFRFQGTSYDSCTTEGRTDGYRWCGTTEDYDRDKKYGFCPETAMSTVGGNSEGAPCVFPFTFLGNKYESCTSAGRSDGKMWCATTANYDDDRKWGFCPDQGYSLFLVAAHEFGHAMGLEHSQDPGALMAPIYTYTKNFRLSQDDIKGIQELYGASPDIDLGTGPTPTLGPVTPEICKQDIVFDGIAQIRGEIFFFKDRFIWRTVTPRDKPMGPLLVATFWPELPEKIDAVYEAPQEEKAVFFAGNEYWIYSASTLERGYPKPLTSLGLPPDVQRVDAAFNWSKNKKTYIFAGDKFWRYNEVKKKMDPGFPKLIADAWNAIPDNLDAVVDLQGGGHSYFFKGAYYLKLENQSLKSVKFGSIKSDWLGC
Kind of data set: β-casein degradation by MMP-2 (SDS gel). As to conditions: APMA-activated MMP-2, β-casein. Format: biochemical. As for the experimental part:
as §3, §4, §5

Another data set deals with T5, APMA-activated MMP-2 (Homo sapiens, UniProt P08253).
T5 construct: endogenous in cells; host or cells: human gingival fibroblasts (serum-free culture medium)
T5 sequence (P08253 110-660): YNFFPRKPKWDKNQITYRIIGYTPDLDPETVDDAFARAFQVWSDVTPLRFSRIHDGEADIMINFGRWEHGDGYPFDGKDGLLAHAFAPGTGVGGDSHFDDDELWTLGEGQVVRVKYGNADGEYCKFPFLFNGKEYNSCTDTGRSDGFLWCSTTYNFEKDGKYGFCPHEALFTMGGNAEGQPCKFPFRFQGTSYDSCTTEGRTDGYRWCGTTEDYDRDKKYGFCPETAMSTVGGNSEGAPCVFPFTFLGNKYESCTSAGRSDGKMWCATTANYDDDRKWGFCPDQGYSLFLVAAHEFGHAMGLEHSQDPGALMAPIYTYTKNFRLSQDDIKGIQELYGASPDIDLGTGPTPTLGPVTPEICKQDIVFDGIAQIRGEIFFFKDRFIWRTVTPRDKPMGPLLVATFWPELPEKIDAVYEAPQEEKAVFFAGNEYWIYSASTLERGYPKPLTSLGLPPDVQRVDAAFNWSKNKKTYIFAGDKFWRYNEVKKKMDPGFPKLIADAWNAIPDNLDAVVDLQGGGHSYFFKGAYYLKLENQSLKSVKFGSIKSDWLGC
Kind of data set: [125I]-gelatin degradation by APMA-activated MMP-2. Format: biochemical. The following applies: 10 μg/ml. On the procedure: as §4
(§6) proMMP-2 was purified from serum-free culture medium of human gingival fibroblasts.

Data set [4] concerns the target T2, proMMP-2. Kind of data set: [125I]-gelatin degradation by proMMP-2. Format: biochemical. As to conditions: 10 μg/ml. On the procedure:
as §4, §6

Data set [5] can be described thus: Toxicity when injected into animals. The following applies: in vivo.

T3 sequence (P14780 107-707 limits assumed): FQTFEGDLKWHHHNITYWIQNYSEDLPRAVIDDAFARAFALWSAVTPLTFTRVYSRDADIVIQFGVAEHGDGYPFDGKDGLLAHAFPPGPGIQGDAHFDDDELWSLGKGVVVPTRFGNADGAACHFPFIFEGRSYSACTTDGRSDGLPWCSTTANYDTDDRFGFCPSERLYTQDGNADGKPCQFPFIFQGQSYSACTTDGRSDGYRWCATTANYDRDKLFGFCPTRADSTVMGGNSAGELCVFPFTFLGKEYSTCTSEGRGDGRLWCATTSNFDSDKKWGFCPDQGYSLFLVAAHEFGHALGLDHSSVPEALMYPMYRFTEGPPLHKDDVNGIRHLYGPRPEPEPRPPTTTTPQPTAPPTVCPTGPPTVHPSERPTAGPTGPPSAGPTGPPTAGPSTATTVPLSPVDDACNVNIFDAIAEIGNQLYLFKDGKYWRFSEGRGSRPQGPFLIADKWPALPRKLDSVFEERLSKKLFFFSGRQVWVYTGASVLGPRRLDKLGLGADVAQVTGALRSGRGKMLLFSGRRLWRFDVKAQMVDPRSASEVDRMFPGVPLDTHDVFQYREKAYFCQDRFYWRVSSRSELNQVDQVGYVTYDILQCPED
T1 sequence (P14780 20-707 limits assumed): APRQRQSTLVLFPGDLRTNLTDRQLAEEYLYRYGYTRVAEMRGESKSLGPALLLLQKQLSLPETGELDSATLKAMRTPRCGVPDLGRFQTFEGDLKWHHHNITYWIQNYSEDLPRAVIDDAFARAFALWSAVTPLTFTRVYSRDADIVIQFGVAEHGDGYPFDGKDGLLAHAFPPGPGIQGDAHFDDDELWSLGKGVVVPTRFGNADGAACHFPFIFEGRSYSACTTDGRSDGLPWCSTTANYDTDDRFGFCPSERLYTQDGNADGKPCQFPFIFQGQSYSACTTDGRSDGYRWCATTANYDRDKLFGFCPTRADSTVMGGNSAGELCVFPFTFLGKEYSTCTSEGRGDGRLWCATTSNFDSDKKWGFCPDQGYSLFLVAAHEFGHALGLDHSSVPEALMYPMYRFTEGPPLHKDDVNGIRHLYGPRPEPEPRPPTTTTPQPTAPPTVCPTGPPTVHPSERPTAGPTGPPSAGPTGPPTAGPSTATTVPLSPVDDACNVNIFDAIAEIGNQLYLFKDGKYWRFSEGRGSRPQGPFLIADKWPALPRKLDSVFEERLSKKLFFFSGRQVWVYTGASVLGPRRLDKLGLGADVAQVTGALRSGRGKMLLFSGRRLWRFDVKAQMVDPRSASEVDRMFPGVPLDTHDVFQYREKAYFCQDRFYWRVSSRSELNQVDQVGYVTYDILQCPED

For “EVGTGSCNLECVSTNPLSGTEQ (Targeted to Homo sapiens)”, in data set [1], the solubility result is on record as “highly soluble”. Besides, the “effect on cell migration” value in data set [2] is listed as “None of these control peptides affected cell migration”.
One may read the IC50 as the concentration needed to halve the response being measured. Take `N=C(N)NCCC[C@@H]1NC(=O)[C@H](CCCNC(=N)N)NC(=O)[C@@H](N)CSSC[C@@H](C(=O)O)NC(=O)[C@H](Cc2ccccc2)NC(=O)[C@H](CCC(=O)O)NC(=O)[C@H](Cc2ccccc2)NC(=O)CNC(=O)[C@H](Cc2c[nH]c3ccccc23)NC(=O)[C@H](Cc2c[nH]cn2)NC1=O` [CRRHWGFEFC] (H-CRRHWGFEFC-OH; disulfide 1-10; N-terminus and C-terminus assumed): the “inhibition of proMMP-9 gelatinolytic activity” value against proMMP-9 (peptide 10 μg/ml) is “more than 50%”. For the same compound, the IC50 against proMMP-2 [3] is 18.7 µM; at APMA-activated MMP-9 (APMA-activated MMP-9, read-out: half-maximal inhibitory value (IC50), [125I]-gelatin degradation (converted)) it was about 7.47 µM; at MMP-2, about 18.7 µM.
Take CQWNNDNPLFKEAEEEVMNPKFAES: in data set [1], the solubility entry is “highly soluble”.
For “linear CRRHWGFEFC: linearized version of CRRHWGFEFC prepared by reducing and alkylating the cysteine residues (also: cysteines reduced and alkylated, alkylating agent not given here)”, in the data set with proMMP-9 (10 μg/ml (FIG. 2)), the “inhibitory activity against proMMP-9 gelatinolysis” value is reported as “loss of inhibitory activity”. Besides, the “gelatinolysis by APMA-activated MMP-2” value with APMA-activated MMP-2 is “virtually inactive”. Besides, the “gelatinolysis by proMMP-2” value with proMMP-2 [4] was “virtually inactive”. In addition, the “inhibitory activity against APMA-activated MMP-9 gelatinolysis” value in the data set with APMA-activated MMP-9 (10 μg/ml (FIG. 2)) is reported as “loss of inhibitory activity”.
With `CC(C)C[C@@H]1NC(=O)[C@H]([C@@H](C)O)NC(=O)[C@H](Cc2ccccc2)NC(=O)CNC(=O)[C@H](Cc2c[nH]c3ccccc23)NC(=O)[C@H](Cc2c[nH]cn2)NC(=O)[C@H]([C@@H](C)O)NC(=O)[C@H]([C@@H](C)O)NC(=O)[C@@H](N)CSSC[C@@H](C(=O)O)NC1=O` [CTTHWGFTLC] (H-CTTHWGFTLC-OH; disulfide 1-10; N-terminus and C-terminus assumed), the IC50 is 4.29 µM against proMMP-2 [3] and about 4.29 µM against MMP-2. For the same compound, the “toxicity when injected into animals” value in data set [5] was “no toxicity”.
